From US20030207819A1, “Compositions and methods for treating inflammatory connective tissue diseases” (priority 2002, published 2003)

How the values were obtained:
[1] = system: patient with low-grade connective tissue symptoms; assay: Example 5: clarithromycin study, VAS and joint assessment; format: in vivo, human
Text: In 1991, it was elected to begin the patient on hydroxychloroquine ([…]®, Sanofi-Synthelabo, Inc.) given their low-grade connective tissue symptoms not responding to non-steroidal anti-inflammatory therapy. […] A trial of hydroxychloroquine was again initiated to see how they would tolerate it. […] Hydroxychloroquine was discontinued when they wanted to attempt getting pregnant again. Therapy most recently consisted of non-steroidal inflammatory agents and physical therapy.
On Feb. 27, 2003, the patient agreed to participate in the clarithromycin study. […] The patient was begun on clarithromycin (BIAXIN®, Abbott Laboratories) 500 mg twice per day.

[2] = system: patient with undifferentiated connective tissue disease; assay: Example 6: clarithromycin trial, VAS and joint assessment; format: in vivo, human; conditions: for Patient VAS (Pain): baseline 89; for Practitioner VAS (Global): baseline 60; for Patient VAS (Global): baseline 63
Text: A patient, was first seen in September 1999. […] They have used a number of anti-inflammatory agents frequently for therapy.
On the basis of the findings, including recurrent episodes of arthritis, Raynaud's, and thickening of the hands, connective tissue disease diagnoses such as Mixed Connective Tissue Disease or Progressive Systemic Sclerosis were considered.
Based on these findings, a diagnosis of Undifferentiated Connective Tissue Disease was made. Therapy was initiated with hydroxychloroquine ([…]®, Sanofi-Synthelabo, Inc.) and a non-steroidal anti-inflammatory agent. They utilized steroid dose packs periodically for symptomatic relief of their peripheral symptoms as well as their neck symptoms.
On examination, they had symptoms and findings much as before and a diagnosis of Undifferentiated Connective Tissue Disease was made. The patient agreed to undergo a trial with clarithromycin.
Following screening and baseline evaluations, the patient was begun on clarithromycin (BIAXIN®, Abbott Laboratories).
25, 2003 (“Visit 3”), for their first recheck visit.
When seen for their one month evaluation, the patient had been off steroid medication for approximately ten days.
Further assessment of their status was made on Apr. 13, 2003 at which time they were now off steroids for almost a one-month period.
Patient was again seen Apr. 21, 2003 (“Visit Four”), for their formal two-month follow-up on clarithromycin.

[3] = Visit Three, clarithromycin for one month
[4] = Visit Three, clarithromycin for one month, baseline 3
[5] = Visit Four, Apr. 21, 2003, clarithromycin for two months
[6] = Visit Four, clarithromycin for two months

## CC[C@H]1OC(=O)[C@H](C)[C@@H](O[C@H]2C[C@@](C)(OC)[C@@H](O)[C@H](C)O2)[C@H](C)[C@@H](O[C@@H]2O[C@H](C)C[C@H](N(C)C)[C@H]2O)[C@](C)(OC)C[C@@H](C)C(=O)[C@H](C)[C@@H](O)[C@]1(C)O [clarithromycin, 6-O-methylerythromycin]
[1]; Visit Three, Apr. 2, 2003, clarithromycin 500 mg twice per day for one month, VAS 0 to 100 mm, baseline 67
  Patient VAS (Pain): 26 mm
[1]; Visit Three, clarithromycin 500 mg twice per day
  joint pain, patient statement: became better pretty much right away
[1]; [3]
  joint tenderness and swelling on physical examination: decreased joint tenderness and swelling
[1]; [4]
  Tender/Painful Joints: 0
[1]; Visit Three, clarithromycin for one month, baseline 6
  Swollen Joints: 1
[1]; Visit Three, clarithromycin for one month, baseline 30
  Patient VAS (Global): 12 mm
[1]; Visit Three, clarithromycin for one month, baseline 54
  Practitioner VAS (Global): 25 mm
[1]; clarithromycin 500 mg twice per day, one month
  side reaction: metallic taste
[2]; Apr. 13, 2003, on clarithromycin
  side reaction: bad taste
[2]; Apr. 13, 2003, on clarithromycin, off steroids almost one month
  pain VAS, patient rating: 25 mm
[2]; [5]
  patient statement of improvement: 80% better
  side reaction: mild bad taste
  Patient VAS (Pain): 11 mm
[2]; [6]
  Practitioner VAS (Global): 4 mm
  Patient VAS (Global): 14 mm
[2]; Visit Three, Mar. 25, 2003, clarithromycin for one month, off steroid about ten days
  Patient VAS (Pain): 16 mm
[2]; [4]
  Tender/Painful Joints: 0
[2]; [3]
  Practitioner VAS (Global): 31 mm
  Patient VAS (Global): 51 mm
